In brackets after ≈: the same amount, converted by molar mass.
Columns and labels:
[1] = test system: yhcRQP-luxCDABE gene fusion in strain DPD2436 (yhcS+); assay: Bioluminescence response of yhcRQP-luxCDABE gene fusion; assay type: cell-based, E. coli; conditions: LB pH 7.0, sodium salt
From the text: (§1) Plasmid pDEW655 was constructed by ligating an E. coli chromosomal segment between nucleotides 3385829 and 3386761 according to the E. coli genomic sequence, which contains the promoter region of the putative yhcRQP operon and the entire yhcR gene and the 5′ end of the yhcQ gene, to the luxCDABE genes parental plasmid, pDEW201 (Gonye et al. U.S. Patent Application Publication 20030219736). Thus, this gene fusion will report on expression of the yhcQ gene and accordingly any other genes cotranscribed with it. Plasmid pDEW655 was moved to E. coli strains MG1655 and DPD2433 by transformation, selecting for Ampicillin resistance to generate strains DPD2436 and DPD2437, respectively. The bioluminescent response of these two strains to pHBA was tested.

[2] = test system: yhcRQP-luxCDABE gene fusion in strain DPD2437 (yhcS−); assay: as above; assay type: cell-based, E. coli; conditions: LB pH 7.0, sodium salt
From the text: as §1

[3] = test system: E. coli strain DH5αE (parental); assay: zone of growth inhibition test on LB agar plates; assay type: cell-based; conditions: disk with 90 μmol pHBA sodium salt, 24 hr at 37° C.
Experimental: (§2) A zone of growth inhibition test was done using 0.1 ml of overnight cultures in LB medium plated onto LB agar plates using 2.5 ml LB soft agar.

[4] = test system: E. coli strain DPD2443 (yhcP::TN<Kan> of DH5αE); assay: zone of growth inhibition test on LB agar plates; assay type: cell-based; conditions: disk with 90 μmol pHBA sodium salt, 24 hr at 37° C.
Experimental: as §2

[5] = test system: yhcP gene (co-transcribed with yhcQ and yhcR); assay: expression of yhcP upon treatment of E. coli cells with aromatic carboxylic acids; assay type: cell-based
[6] = test system: E. coli MG1655 (+) with pTrcHis2TOPO®/lacZ (control); assay: pHBA MIC, 3:4 dilutions, Vogel-Bonner medium with 0.4% glucose; assay type: cell-based; conditions: Escherichia coli, read-out: pHBA MIC, control plasmid, 21 hours at 37° C., sodium salt, highest tested 100 mM
From the text: (§3) An additional experiment is consistent with the above conclusion. This experiment used E. coli strain MG1655 and strains derived from it, DPD1818 (described above in this example) with a to/C::miniTn10 mutation, […] (described in example 3) with a yhcS::TN<Kan> mutation, and DPD2435 that carries both the to/C::miniTn10 and yhcS::TN<Kan> mutations. The latter strain was constructed using P1clr100Cm mediated transduction of DE112 with phage grown on strain DPD2410 (described in Example 3) and selection for kanamycin resistance. These four strains were each transformed with plasmids pTrcHis2TOPO®/lacZ (Invitrogen) for a control and pDEW668 that expresses the yhcRQP operon (described in Example 2). […] Vogel-Bonner minimal medium with 0.4% glucose was used. […] The inoculum was 50 μl of a 1:500 dilution into Vogel-Bonner medium with 0.4% glucose as a carbon source of overnight cultures of each of the plasmid-containing strains grown in the same medium except with addition of 25 μg/ml Ampicillin.

[7] = test system: E. coli DPD2435 (yhcS−, tolC−) with pDEW668 (yhcRQP); assay: as above; assay type: cell-based; conditions: Escherichia coli, 21 h, read-out: pHBA MIC
From the text: as §3

[8] = test system: E. coli DPD1818 (tolC−) with pTrcHis2TOPO®/lacZ (control); assay: as above; assay type: cell-based; conditions: Escherichia coli, 21 h, read-out: pHBA MIC
From the text: as §3

[9] = test system: E. coli DPD2433 (yhcS−) with pTrcHis2TOPO®/lacZ (control); assay: as above; assay type: cell-based; conditions: Escherichia coli, 21 h, read-out: pHBA MIC
From the text: as §3

[10] = test system: E. coli MG1655 (+) with pDEW668 (yhcRQP); assay: as above; assay type: cell-based; conditions: Escherichia coli, MG1655, 21 h, read-out: pHBA MIC
From the text: as §3

[11] = test system: E. coli DPD2433 (yhcS−) with pDEW668 (yhcRQP); assay: as above; assay type: cell-based; conditions: Escherichia coli, 21 h, read-out: pHBA MIC
From the text: as §3

[12] = test system: E. coli DPD2435 (yhcS−, tolC−) with pTrcHis2TOPO®/lacZ (control); assay: as above; assay type: cell-based; conditions: Escherichia coli, 21 h, read-out: pHBA MIC
From the text: as §3

[13] = test system: E. coli DPD1818 (tolC−) with pDEW668 (yhcRQP); assay: as above; assay type: cell-based; conditions: Escherichia coli, 21 h, read-out: pHBA MIC
From the text: as §3

[14] = test system: E. coli strain DPD3317 (DPD2433 yhcS− with pDEW668 yhcRQP); assay type: cell-based; conditions: sodium salt of pHBA 80 μmoles/disk
From the text: (§4) Plasmids pDEW668, pDEW673, pDEW675, and a control plasmid, pTrcHis2TOPO®/lacZ (Invitrogen), were moved by transformation to E. coli strain DPD2433, selecting for Ampicillin resistance, to generate strains DPD3317, DPD2455, DPD2457, and DPD3316, respectively.

[15] = test system: E. coli strain DPD3316 (DPD2433 yhcS− with pTrcHis2TOPO®/lacZ control); assay type: cell-based; conditions: sodium salt of pHBA 80 μmoles/disk
From the text: as §4

[16] = test system: E. coli strain DPD2457 (DPD2433 yhcS− with pDEW675 yhcRQ); assay type: cell-based; conditions: sodium salt of pHBA 80 μmoles/disk
From the text: as §4

[17] = test system: E. coli strain DPD2455 (DPD2433 yhcS− with pDEW673 yhcQP); assay type: cell-based; conditions: sodium salt of pHBA 80 μmoles/disk
From the text: as §4

[18] = Vogel-Bonner 0.4% glucose, average of two experiments

`O=C(O)c1ccc(O)cc1` [pHBA, para-hydroxybenzoic acid] gave an RLU ([1]; [pHBA] 1.6, thirty minutes) of 6.72 RLU, an RLU ([1]; [pHBA] 3.1, thirty minutes) of 10.2 RLU and an RLU ([1]; [pHBA] 6.2, thirty minutes) of 16.2 RLU. It also gave an RLU ([1]; [pHBA] 12.5, thirty minutes) of 30.8 RLU, an RLU ([1]; [pHBA] 25, thirty minutes) of 66.6 RLU and an RLU ([1]; [pHBA] 50, thirty minutes) of 91.7 RLU. For the same molecule, the RLU ([1]; [pHBA] 100, thirty minutes) was 0.437 RLU, the RLU ([2]; [pHBA] 1.6, thirty minutes) was 1.02 RLU and the RLU ([2]; [pHBA] 3.1, thirty minutes) was 1.16 RLU. It also gave an RLU ([2]; [pHBA] 6.2, thirty minutes) of 1.42 RLU, an RLU ([2]; [pHBA] 12.5, thirty minutes) of 1.82 RLU and an RLU ([2]; [pHBA] 25, thirty minutes) of 1.59 RLU. The RLU ([2]; [pHBA] 50, thirty minutes) was 0.614 RLU, the RLU ([2]; [pHBA] 100, thirty minutes) was 0.045 RLU and the “pHBA zone of growth inhibition, mm diameter” value [3] was 9.0 mm. The “pHBA zone of growth inhibition, mm diameter” value [4] was 13.0 mm, the “expression of the yhcP gene upon treatment of E. coli cells” value [5] was “highly upregulated” and the MIC [6] was 100 mM. For the same molecule, the MIC [7] was 100 mM (≈ 13.8 mg/mL), the MIC [8] was 56 mM (≈ 7.73 mg/mL) and the MIC [9] was 18 mM (≈ 2.49 mg/mL). For the same molecule, the MIC [10] was 100 mM (≈ 13.8 mg/mL), the MIC [11] was 100 mM (≈ 13.8 mg/mL) and the MIC [12] was 13 mM (≈ 1.8 mg/mL). The MIC [13] was 100 mM (≈ 13.8 mg/mL), the “clarity of pHBA zone of growth inhibition” value [14] was “turbid” and the “pHBA zone of growth inhibition, mm diameter” value [14, 18] was 9.8 mm. The “clarity of pHBA zone of growth inhibition” value [15] was “clear”, the “pHBA zone of growth inhibition, mm diameter” value [15, 18] was 23.5 mm and the “clarity of pHBA zone of growth inhibition” value [16] was “slightly turbid”. For the same molecule, the “pHBA zone of growth inhibition, mm diameter” value [16, 18] was 17.0 mm, the “clarity of pHBA zone of growth inhibition” value [17] was “turbid” and the “pHBA zone of growth inhibition, mm diameter” value [17, 18] was 9.5 mm.

Reference: patent publication US7279321B2, “Methods for increasing the resistance of a host cell to aromatic carboxylic acids” (priority 2003, dated 2007)
